# Earlier results as cited in patent publication US8492403B2, “Bicyclic derivatives as modulators of voltage gated ion channels” (Vertex Pharmaceuticals Incorporated, priority 2005, dated 2013).
# Experiments:
# NaV 1.3 = NaV 1.3 (Homo sapiens, UniProt Q9NY46); details: read-out: TTX IC50; cited from earlier work
# NaV 1.8 = NaV 1.8 (Homo sapiens, UniProt Q9Y5Y9); details: read-out: TTX IC50; cited from earlier work
# [1] = neuropathic pain; cited from earlier work
# Sequence of NaV 1.3 (Q9NY46 whole entry, looked up): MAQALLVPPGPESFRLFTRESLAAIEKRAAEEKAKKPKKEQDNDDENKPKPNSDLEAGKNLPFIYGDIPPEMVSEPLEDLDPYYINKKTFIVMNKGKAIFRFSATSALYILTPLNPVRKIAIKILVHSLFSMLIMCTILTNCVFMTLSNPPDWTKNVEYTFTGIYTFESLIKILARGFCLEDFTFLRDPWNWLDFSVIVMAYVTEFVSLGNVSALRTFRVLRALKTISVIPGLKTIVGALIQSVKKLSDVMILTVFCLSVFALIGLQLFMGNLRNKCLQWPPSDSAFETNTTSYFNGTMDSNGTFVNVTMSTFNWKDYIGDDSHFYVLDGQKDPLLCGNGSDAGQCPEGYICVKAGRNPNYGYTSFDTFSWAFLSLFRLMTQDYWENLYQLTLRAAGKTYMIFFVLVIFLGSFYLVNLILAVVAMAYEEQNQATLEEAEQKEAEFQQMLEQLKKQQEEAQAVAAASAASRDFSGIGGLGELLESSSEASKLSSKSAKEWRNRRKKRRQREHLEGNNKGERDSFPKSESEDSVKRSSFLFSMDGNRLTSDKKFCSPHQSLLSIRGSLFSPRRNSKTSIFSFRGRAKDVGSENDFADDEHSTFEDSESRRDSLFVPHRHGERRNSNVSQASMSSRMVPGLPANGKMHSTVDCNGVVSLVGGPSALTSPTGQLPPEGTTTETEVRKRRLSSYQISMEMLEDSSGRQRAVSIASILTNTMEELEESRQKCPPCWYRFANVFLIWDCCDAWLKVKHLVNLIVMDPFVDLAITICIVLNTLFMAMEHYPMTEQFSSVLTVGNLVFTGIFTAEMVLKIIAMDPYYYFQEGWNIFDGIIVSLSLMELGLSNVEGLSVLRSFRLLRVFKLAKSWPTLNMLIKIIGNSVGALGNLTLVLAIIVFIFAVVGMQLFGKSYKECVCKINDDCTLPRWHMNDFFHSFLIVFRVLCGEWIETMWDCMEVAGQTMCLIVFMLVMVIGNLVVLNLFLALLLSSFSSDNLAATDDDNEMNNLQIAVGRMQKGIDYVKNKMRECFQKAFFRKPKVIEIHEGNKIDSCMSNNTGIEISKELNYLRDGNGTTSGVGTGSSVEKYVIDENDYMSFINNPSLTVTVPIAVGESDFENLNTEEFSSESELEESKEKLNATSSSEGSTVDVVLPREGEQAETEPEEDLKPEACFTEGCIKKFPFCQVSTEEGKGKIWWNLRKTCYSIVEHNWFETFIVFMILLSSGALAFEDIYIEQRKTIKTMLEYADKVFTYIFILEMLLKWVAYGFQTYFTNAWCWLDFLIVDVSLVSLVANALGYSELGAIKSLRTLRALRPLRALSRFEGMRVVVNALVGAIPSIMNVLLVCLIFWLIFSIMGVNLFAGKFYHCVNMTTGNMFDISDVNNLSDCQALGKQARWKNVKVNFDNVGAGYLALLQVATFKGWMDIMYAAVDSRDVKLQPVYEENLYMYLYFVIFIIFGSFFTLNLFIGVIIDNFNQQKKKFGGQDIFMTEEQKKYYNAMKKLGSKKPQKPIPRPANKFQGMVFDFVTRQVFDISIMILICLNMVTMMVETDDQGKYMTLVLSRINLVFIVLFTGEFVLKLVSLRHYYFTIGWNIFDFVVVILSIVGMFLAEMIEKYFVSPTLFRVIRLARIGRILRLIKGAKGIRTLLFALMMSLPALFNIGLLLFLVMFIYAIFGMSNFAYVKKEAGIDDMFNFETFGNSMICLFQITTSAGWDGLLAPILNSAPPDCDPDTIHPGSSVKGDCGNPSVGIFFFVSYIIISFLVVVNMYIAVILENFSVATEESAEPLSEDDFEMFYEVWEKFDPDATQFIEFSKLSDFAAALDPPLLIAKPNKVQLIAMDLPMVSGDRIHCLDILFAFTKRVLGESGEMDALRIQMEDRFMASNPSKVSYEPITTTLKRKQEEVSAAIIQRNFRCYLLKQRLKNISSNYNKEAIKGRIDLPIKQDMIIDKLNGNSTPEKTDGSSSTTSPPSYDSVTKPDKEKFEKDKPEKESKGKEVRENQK
# Sequence of NaV 1.8 (Q9Y5Y9 whole entry, looked up): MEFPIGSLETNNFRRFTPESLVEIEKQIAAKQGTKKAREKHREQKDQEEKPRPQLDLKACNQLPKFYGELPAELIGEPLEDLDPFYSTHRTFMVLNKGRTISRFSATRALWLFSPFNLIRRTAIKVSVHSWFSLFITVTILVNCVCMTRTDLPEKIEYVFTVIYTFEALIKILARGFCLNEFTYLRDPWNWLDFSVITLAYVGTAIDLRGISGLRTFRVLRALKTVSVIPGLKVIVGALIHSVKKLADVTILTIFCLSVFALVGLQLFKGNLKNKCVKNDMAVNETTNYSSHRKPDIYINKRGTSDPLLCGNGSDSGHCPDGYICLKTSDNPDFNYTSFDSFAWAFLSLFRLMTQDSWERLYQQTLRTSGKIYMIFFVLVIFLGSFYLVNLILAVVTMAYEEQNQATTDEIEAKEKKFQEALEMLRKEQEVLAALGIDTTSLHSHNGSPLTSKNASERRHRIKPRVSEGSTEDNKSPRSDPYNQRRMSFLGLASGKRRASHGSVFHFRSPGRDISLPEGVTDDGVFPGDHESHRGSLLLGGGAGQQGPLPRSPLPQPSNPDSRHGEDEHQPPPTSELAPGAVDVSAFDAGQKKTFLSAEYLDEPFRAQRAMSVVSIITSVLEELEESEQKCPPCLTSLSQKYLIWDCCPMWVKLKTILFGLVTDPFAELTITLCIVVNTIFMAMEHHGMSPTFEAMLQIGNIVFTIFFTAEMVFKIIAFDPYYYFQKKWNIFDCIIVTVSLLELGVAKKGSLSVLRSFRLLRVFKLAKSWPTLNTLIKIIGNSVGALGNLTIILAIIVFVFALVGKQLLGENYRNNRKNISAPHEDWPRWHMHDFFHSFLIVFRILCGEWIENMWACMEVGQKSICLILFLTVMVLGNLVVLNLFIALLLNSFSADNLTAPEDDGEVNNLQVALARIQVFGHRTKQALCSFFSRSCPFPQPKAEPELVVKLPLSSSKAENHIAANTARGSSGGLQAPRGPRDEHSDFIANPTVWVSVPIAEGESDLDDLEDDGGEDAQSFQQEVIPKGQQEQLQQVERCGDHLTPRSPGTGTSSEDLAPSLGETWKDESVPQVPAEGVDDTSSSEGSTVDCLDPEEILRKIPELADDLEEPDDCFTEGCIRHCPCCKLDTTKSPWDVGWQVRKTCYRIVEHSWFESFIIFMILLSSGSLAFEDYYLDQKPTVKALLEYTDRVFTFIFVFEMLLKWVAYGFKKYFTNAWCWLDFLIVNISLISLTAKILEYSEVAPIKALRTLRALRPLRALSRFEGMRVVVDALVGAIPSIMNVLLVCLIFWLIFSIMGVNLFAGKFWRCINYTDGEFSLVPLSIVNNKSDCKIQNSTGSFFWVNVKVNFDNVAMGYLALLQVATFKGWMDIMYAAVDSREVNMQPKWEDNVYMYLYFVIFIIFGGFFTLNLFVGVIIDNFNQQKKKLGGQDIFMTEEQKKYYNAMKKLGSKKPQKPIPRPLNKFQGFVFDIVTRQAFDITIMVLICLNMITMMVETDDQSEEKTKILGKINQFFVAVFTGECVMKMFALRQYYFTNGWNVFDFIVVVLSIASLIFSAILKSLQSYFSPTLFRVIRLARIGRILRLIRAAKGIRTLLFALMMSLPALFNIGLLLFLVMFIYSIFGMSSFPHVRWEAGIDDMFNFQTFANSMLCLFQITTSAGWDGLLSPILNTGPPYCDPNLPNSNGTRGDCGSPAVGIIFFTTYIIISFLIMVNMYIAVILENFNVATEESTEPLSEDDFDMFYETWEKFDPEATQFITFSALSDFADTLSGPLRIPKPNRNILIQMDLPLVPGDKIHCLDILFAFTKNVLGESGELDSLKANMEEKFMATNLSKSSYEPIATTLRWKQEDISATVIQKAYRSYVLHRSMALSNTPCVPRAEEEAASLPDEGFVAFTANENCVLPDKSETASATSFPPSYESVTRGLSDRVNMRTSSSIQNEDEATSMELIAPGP
SMILES,IC50 (NaV 1.3) [nM],IC50 (NaV 1.8) [nM],share of patients in which it works [1] [%]
"NC1=N[C@H](O)[C@H]2[C@H]3O[C@]4(O)O[C@@H]([C@@H](O)[C@@]2(N1)[C@@H]4O)[C@]3(O)CO [TTX, tetrodotoxin]",15,> 50000,–
NCC1(CC(=O)O)CCCCC1 [Gabapentin],–,–,60
